Values of other authors, collected in patent publication EP4484428A1, “CUCURBITURIL DERIVATIVES FOR RADIOLABELING, PROCESSES OF PRODUCTION AND USES THEREOF” (Université de Bourgogne, priority 2023, dated 2025).

Tested on: (strept)avidin
Settings: biotin-(strept)avidin pair, association constant

O=C(O)CCCC[C@@H]1SC[C@@H]2NC(=O)N[C@@H]21 [biotin]
affinity (K): 10^15 M^-1
